“Also recorded” adds a separate entry of the source.
What was measured:
[1] = biological target: T1, κOR (Homo sapiens, UniProt P41145); test: Radioligand binding at κOR (PDSP); conditions: Ki (nM) κOR
T1 construct: NIMH Psychoactive Drug Screening Program (PDSP)

[2] = biological target: T2, δOR (Homo sapiens, UniProt P41143); test: Radioligand binding at δOR (PDSP)
T2 construct: NIMH Psychoactive Drug Screening Program (PDSP)

[3] = biological target: T3, μOR (Homo sapiens, UniProt P35372); test: cell-based; format: cell-based
T3 sequence (P35372 whole entry): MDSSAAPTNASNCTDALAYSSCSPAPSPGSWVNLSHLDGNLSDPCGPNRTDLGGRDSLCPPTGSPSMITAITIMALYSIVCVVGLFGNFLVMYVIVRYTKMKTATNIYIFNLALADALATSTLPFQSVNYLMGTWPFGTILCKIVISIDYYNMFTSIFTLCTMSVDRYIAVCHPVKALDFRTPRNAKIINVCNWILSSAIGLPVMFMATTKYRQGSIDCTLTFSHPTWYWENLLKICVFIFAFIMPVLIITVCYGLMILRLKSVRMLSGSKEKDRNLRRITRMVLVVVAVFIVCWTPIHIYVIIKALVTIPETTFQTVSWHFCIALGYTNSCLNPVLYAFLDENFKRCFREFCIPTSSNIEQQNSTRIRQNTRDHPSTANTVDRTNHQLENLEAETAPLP

[4] = biological target: T2, δOR; test: Gi/o Glosensor assay at δOR; format: cell-based; conditions: ND = not detectable
[5] = biological target: T1, κOR; test: Gi/o Glosensor assay at κOR; format: cell-based
[6] = biological target: T4, nociceptin receptor (Homo sapiens, UniProt P41146); test: Gi/o Glosensor assay at nociceptin receptor; format: cell-based
T4 construct: NIMH Psychoactive Drug Screening Program (PDSP)
T4 sequence (P41146 whole entry): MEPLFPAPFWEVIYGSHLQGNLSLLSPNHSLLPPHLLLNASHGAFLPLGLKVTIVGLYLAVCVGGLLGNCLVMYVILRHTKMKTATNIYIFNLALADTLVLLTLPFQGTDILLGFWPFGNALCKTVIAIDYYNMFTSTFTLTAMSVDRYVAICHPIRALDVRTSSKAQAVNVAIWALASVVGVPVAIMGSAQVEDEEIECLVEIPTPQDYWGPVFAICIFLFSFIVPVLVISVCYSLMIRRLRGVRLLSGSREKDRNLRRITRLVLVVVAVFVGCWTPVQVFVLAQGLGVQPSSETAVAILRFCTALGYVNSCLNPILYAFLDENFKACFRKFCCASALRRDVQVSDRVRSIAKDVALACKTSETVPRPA

[7] = biological target: T3, μOR; test: β-arrestin2 recruitment, PathHunter assay; format: cell-based
[8] = biological target: T3, μOR; test: β-arrestin recruitment at μOR without GRK2; format: cell-based
[9] = biological target: T3, μOR; test: β-arrestin recruitment at μOR with GRK2 co-expression; format: cell-based
[10] = biological target: hERG ion channel (Homo sapiens, UniProt Q12809); test: Inhibition of hERG channel; format: biochemical
hERG ion channel, sequence (Q12809 whole entry): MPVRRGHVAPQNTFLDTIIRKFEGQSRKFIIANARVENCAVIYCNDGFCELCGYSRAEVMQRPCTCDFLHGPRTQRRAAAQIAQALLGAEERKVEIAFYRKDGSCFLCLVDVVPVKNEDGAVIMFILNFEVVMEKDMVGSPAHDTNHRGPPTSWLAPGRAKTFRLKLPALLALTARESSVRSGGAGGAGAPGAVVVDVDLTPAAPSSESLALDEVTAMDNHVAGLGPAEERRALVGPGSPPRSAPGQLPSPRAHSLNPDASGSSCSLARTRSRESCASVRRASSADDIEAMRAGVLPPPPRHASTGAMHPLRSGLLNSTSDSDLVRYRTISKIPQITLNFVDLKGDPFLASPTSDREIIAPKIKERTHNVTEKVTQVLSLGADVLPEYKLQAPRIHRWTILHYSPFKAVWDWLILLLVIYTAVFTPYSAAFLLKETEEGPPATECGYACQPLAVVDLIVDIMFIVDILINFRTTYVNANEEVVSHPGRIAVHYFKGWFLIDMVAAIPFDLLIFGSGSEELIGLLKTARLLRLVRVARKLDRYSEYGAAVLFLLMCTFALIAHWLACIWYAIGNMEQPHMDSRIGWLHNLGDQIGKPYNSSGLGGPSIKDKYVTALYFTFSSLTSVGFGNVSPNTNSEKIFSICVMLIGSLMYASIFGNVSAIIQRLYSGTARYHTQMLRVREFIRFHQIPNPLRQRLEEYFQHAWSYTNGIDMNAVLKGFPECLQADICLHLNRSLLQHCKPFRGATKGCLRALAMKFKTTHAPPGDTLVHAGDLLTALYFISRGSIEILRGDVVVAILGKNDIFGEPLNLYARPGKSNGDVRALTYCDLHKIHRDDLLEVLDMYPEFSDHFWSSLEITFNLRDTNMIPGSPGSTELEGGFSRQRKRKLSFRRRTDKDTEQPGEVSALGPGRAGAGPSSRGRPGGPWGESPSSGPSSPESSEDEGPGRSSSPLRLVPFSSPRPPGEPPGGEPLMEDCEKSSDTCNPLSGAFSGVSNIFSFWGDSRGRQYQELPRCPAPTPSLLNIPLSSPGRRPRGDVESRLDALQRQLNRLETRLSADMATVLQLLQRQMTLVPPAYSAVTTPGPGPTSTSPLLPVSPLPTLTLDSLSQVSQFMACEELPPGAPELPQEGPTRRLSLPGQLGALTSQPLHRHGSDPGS

[11] = test system: 320 non-olfactory GPCRs; test: PRESTO-Tango GPCRome β-arrestin recruitment screen for off-target agonism; format: cell-based; conditions: 10 μM, hits re-tested in full dose-response
Source text: Potential positive receptor hits were defined as those that increase the relative luminescence value by two fold. […] A number of false positive hits were discounted by this approach.

[12] = test system: C57BL/6J mice; test: Conditioned place preference; conditions: mouse, in vivo
Description: On day 1 (preconditioning day), mice were placed in the central chamber and allowed to explore freely for 30 minutes. Time spent in each compartment was used to estimate baseline chamber preferences and mice showing specific chamber bias more than 70% were not studied further. On days 2-9 (conditioning days) mice were injected with either vehicle or drug and paired with either the white mesh or the black rod chambers. All mice received vehicle on days 2, 4, 6, 8 and drug on days 3, 5, 7, 9. On day 10 (test day), mice were again placed in the central chamber as on day 1 and allowed to explore freely for 30 minutes. Time spent in each chamber was expressed as percentage preference.

[13] = Pharmacokinetics of PZM21 (serum and brain); format: in vivo, mouse; conditions: 20 mg/kg subcutaneous
Description: Studies were performed by the Preclinical Therapeutics Core and the Drug Studies Unit at the University of California San Francisco.

[14] = Metabolism by mouse liver microsomes; format: in vitro ADME; conditions: over one hour
Description: Metabolism experiments were performed as described previously. In brief, pooled microsomes from male mouse liver (CD-1) were purchased (Sigma Aldrich) and stored at −75° C. until required. NADPH was purchased (Carl Roth) and stored at −8° C. The incubation reactions were carried out in polyethylene caps (Eppendorf, 1.5 mL) at 37° C. […] The final incubation volume was 0.5 mL. Microsomal reactions were initiated by addition of 50 μL of enzyme cofactor solution NADPH (final concentration of 1 mM). At 0, 15, 30 and 60 min the enzymatic reactions were terminated by addition of 500 μL of ice-cold acetonitrile (containing 8 μM internal standard), and precipitated protein was removed by centrifugation (15,000 rcf for 3 min). The supernatant was analyzed by HPLC/MS (binary solvent system, eluent acetonitrile in 0.1% aqueous formic acid, 10-40% acetonitrile in 8 min, 40-95% acetonitrile in 1 min, 95% acetonitrile for 1 min, flow rate of 0.3 mL/min). The experiments were repeated in three independent experiments. […] Substrate remaining and metabolite formation was calculated as a mean value+SEM of three independent experiments by comparing AUC of metabolites and substrate after predetermined incubation time to AUC of substrate at time 0, estimating a similar ionization rate, corrected by a factor calculated from the AUC of internal standard at each time point.

[15] = test system: C57BL/6J mice; test: Tail-flick assay; conditions: mouse, in vivo
[16] = test system: C57BL/6J mice; test: Hot-plate analgesia
[17] = test system: C57BL/6J mice; test: Formalin injection assay; conditions: PZM21 40 mg/kg
Description: Analgesia to formalin injection was carried out as described previously^66. Mice were first habituated for 20 minutes to the testing environment which included a home cage without bedding, food, and water. […] This was followed by injection of 20 μL of 1% formalin in 0.9% saline under the skin of the dorsal surface of the right hindpaw. Animals were returned to their home cage and behavioral responses were recorded for one hour. Nociception was estimated by measuring the cumulative time spent by animals licking the formalin-injected paw. As opioids classically display two phases of analgesic action, nociceptive behavior was measured during both the early phase (0 to 5 minutes) and the late phase (20 to 30 minutes).

[18] = test system: C57BL/6J mice; test: Cataleptic effect (bar test); conditions: PZM21 20 mg/kg
Description: Drug induced catalepsy was measured in mice using the bar test, which includes a horizontally placed 3 mm diameter wooden bar fixed 4 cm above the floor. […] To measure catalepsy, both forepaws were gently placed on the bar and the length of time during which each mouse remained in the initial position was measured. The effect was measured at 15, 30 and 90 minutes after drug injection. Maximum cut-off time for each challenge was 90 seconds.

[19] = biological target: T3, μOR; test: Calcium release (FLIPR); format: cell-based; parameters: expressed in transfected cells
Description: Calcium release was measured using a FLIPR^TETRA fluorescence imaging plate reader (Molecular Devices). Calcium release experiments were run in parallel to Gi/o Glosensor experiments with the same HEKT cells transfected with μOR, except cells for FLIPR were plated in poly-lysine coated 384-well black clear bottom cell culture plates. Cells were incubated at 37° C. with 5% CO2 overnight, and next day, media was decanted and replaced with Fluo-4 direct calcium dye (Life Technologies) made up in HBSS with 20 mM HEPES, pH 7.4. Dye was incubated for 1 hour at 37° C. Afterwards, cells were equilibrated to room temperature, and fluorescence in each well was read for the initial 10 seconds to establish a baseline. Afterwards, 10 μL of drug (3×) was added per well and the maximum-fold increase in fluorescence was determined as fold-over-baseline. Drug solutions used for the FLIPR assay were exactly the same as used for Gi/o Glosensor experiments. To activate endogenous Gq-coupled receptors as a positive control for calcium release, TFLLR-NH2 (10 μM, PAR-1 selective agonist) was used.

[20] = test system: C57BL/6J mice; test: Open field locomotor response; conditions: PZM21 20 mg/kg, morphine 10 mg/kg
[21] = test system: C57BL/6J mice; test: Accumulated fecal boli quantification (constipation); conditions: PZM21 20 mg/kg, morphine 10 mg/kg

T1 sequence (P41145 whole entry): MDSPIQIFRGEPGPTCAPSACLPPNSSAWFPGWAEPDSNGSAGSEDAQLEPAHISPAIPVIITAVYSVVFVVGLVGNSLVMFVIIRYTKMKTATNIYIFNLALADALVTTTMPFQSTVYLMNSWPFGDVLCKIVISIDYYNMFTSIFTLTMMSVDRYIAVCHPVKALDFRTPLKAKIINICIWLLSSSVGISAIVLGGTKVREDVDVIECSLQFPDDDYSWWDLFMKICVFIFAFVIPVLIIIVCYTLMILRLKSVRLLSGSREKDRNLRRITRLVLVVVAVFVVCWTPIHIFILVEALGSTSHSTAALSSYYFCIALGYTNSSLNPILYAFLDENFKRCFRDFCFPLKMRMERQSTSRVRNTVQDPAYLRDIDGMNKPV
T2 sequence (P41143 whole entry): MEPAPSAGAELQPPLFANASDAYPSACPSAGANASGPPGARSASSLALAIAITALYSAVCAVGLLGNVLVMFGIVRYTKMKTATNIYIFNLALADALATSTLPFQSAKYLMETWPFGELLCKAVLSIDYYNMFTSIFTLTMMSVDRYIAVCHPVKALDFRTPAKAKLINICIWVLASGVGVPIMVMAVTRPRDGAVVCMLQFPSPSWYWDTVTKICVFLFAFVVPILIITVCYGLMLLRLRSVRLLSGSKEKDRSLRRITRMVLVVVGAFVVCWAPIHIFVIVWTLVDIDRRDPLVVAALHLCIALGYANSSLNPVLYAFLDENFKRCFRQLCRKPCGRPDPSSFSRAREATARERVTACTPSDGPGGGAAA

Q: For `C[C@@H](Cc1ccsc1)NC(=O)NC[C@H](Cc1ccc(O)cc1)N(C)C` [PZM21, 1-[(S)-2-(Dimethylamino)-3-(4-hydroxyphenyl)propyl]-3-((S)-1-(thiophen-3-yl)propan-2-yl)urea], which Ki [1] is on record?
A: Its Ki is 18 nM.

Q: What about the Ki [2] of the same molecule?
A: Its Ki is 506 nM.

Q: What about the “Gi/o activation, μOR agonist activity (in words)” value [3] of the same molecule?
A: The value was “robust μOR agonist activity”.

Q: And the EC50 [4]?
A: The EC50 was 1900 nM.

Q: And the “KOR agonist activity (in words)” value [5]?
A: The value was “no detectable”.

Q: And the “mode of action at KOR” value ([5]; antagonist mode)?
A: The value was “antagonist”.

Q: And the “nociceptin receptor agonist activity (in words)” value [6]?
A: The value was “no detectable”.

Q: And the “β-arrestin2 recruitment (in words)” value [7]?
A: The value was “undetectable; also recorded: minimal recruitment of β-arrestin2; also recorded: no detectable”.

Q: What about the “Arrestin Emax % DAMGO” value [8] of the same molecule?
A: Its value is 15 % DAMGO.

Q: What about the “β-arrestin2 recruitment in the absence of GRK2 (in words)” value [8] of the same molecule?
A: The value was “no β-arrestin2 recruitment”.

Q: And the “arrestin recruitment with over-expressed GRK2 (in words)” value [9]?
A: Its value is “weak arrestin recruitment efficacy compared to DAMGO and even to morphine”.

Q: And the signaling bias ([9]; operational model, DAMGO as reference)?
A: The signaling bias was “undistinguishable from TRV130”.

Q: What about the IC50 [10] of the same molecule?
A: Its IC50 is 2000 to 4000 nM.

Q: And the “agonism against 316 other GPCRs” value [11]?
A: Its value is “no potent activity was confirmed”.

Q: What about the conditioned place preference [12] of the same molecule?
A: The conditioned place preference was “does not induce a conditioned place preference response”.

Q: And the “blood brain barrier penetration” value [13]?
A: Its value is “substantial fraction of PZM21 crosses the blood brain barrier”.

Q: What about the “metabolism by mouse liver microsomes” value [14] of the same molecule?
A: Its value is 8%.

Q: And the “analgesic effect in tail-flick assay” value [15]?
A: Its value is “no activity; also recorded: no analgesic effect”.

Q: What about the duration of analgesia ([16]; hot plate) of the same molecule?
A: The duration of analgesia was “up to 180 minutes”.

Q: And the “percent maximal possible effect (% MPE)” value ([16]; hot plate, highest dose of drug tested, 15 minutes after administration)?
A: The value was 87%.

Q: And the “analgesia in hot-plate assay (in words)” value ([16]; mouse, subcutaneous)?
A: Its value is “dose-dependent analgesia”.

Q: What about the “activity in formalin injection nociception assay” value [17] of the same molecule?
A: The value was “active”.

Q: And the cataleptic behavior [18]?
A: The cataleptic behavior was “does not induce cataleptic behavior”.

Q: And the calcium release [19]?
A: Its calcium release is “no activity was observed”.

Q: And the open field locomotion [20]?
A: Its open field locomotion is “does not induce open field locomotion; also recorded: no apparent effect on locomotion versus vehicle”.

Q: And the constipation effect [21]?
A: Its constipation effect is “reduced constipatory effects as compared to morphine; also recorded: substantially less than morphine”.
